# Test results taken from publication PMC10342533, “Novel Tetrazole Derivatives Targeting Tubulin Endowed with Antiproliferative Activity against Glioblastoma Cells” (International Journal of Molecular Sciences, 2023).
# What was measured:
# [1] = test system: HeLa (cervix epithelioid carcinoma); experiment: Cell growth inhibition, MTT assay, HeLa; assay type: cell-based; details: Homo sapiens
# Protocol: (§1) The ability of the synthesized compounds to inhibit the cell proliferation of human cancer cell lines was assayed by measuring cell viability through the use of the MTT method 72 h after treatment. For this purpose, representative cell lines of the most frequent kinds of cancer were selected, including the following: HeLa (cervix epithelioid carcinoma), MCF7 (breast adenocarcinoma), U87 MG (glioblastoma), T98G (temozolomide resistant glioblastoma), HepG2 (hepatocellular carcinoma), HCT8 (colorectal carcinoma), and HT-29 (colon adenocarcinoma).
# (§2) The cell lines were obtained from ATTC (Manassas, VA, USA). […] The cells were periodically tested for Mycoplasma infection by using a MycoAlert kit (Lonza, Norwest, Australia), and only Mycoplasma-free cells were used in the experiments.
# (§3) Then, every compound was added (10 µL/well) to a final concentration of 10 µM. Untreated cells were used as negative controls. The antiproliferative activity of compounds was measured 72 h after drug exposure through the MTT assay. […] For this purpose, compounds were used at different concentrations, ranging from 10^−10 to 10^−2 M. Measurements were performed in triplicate, and each experiment was repeated three times. The IC50 values were determined using Origin software (version 9.6, OriginLab, Washington, DC, USA).
# [2] = test system: MCF7 (breast adenocarcinoma); experiment: Cell growth inhibition, MTT assay, MCF7; assay type: cell-based; details: Homo sapiens
# Protocol: as §1, §2, §3
# U87 MG (glioblastoma) = experiment: Cell growth inhibition, MTT assay, U87 MG; assay type: cell-based; details: Homo sapiens, U-87 MG
# Protocol: as §1, §2, §3
# [3] = test system: HepG2 (hepatocellular carcinoma); experiment: Cell growth inhibition, MTT assay, HepG2; assay type: cell-based; details: Homo sapiens
# Protocol: as §1, §2, §3
# [4] = test system: HCT8 (colorectal carcinoma); experiment: Cell growth inhibition, MTT assay, HCT8; assay type: cell-based; details: Homo sapiens
# Protocol: as §1, §2, §3
# [5] = test system: HT-29 (colon adenocarcinoma); experiment: Cell growth inhibition, MTT assay, HT-29, without or with verapamil; assay type: cell-based, human
# Protocol: as §1
# Multidrug resistance (MDR) proteins, especially P-glycoprotein (P-gp), are often involved in resistance mechanisms affecting tubulin-binding drugs that are frequently related to the failure of cancer therapies. […] These pumps are also part of the blood–brain barrier.
# as §2, §3
# [6] = test system: HEK-293 (embryonic kidney); experiment: Cell growth inhibition, MTT assay, non-tumor HEK-293; assay type: cell-based; details: Homo sapiens
# Protocol: The ability of the synthesized compounds to inhibit the cell proliferation of human cancer cell lines was assayed by measuring cell viability through the use of the MTT method 72 h after treatment. For this purpose, representative cell lines of the most frequent kinds of cancer were selected, including the following: HeLa (cervix epithelioid carcinoma), MCF7 (breast adenocarcinoma), U87 MG (glioblastoma), T98G (temozolomide resistant glioblastoma), HepG2 (hepatocellular carcinoma), HCT8 (colorectal carcinoma), and HT-29 (colon adenocarcinoma). […] The compounds were also tested against the non-tumor HEK-293 cells to study their selectivity toward cancer cells. […] The cell lines were obtained from ATTC (Manassas, VA, USA). […] The cells were periodically tested for Mycoplasma infection by using a MycoAlert kit (Lonza, Norwest, Australia), and only Mycoplasma-free cells were used in the experiments. […] Louis, MO, USA), which was dissolved in PBS at 5 mg/mL in accordance with the manufacturer's instructions. […] Untreated cells were used as negative controls. The antiproliferative activity of compounds was measured 72 h after drug exposure through the MTT assay. […] For this purpose, compounds were used at different concentrations, ranging from 10^-10 to 10^-2 M. Measurements were performed in triplicate, and each experiment was repeated three times. The IC50 values were determined using Origin software (version 9.6, OriginLab, Washington, DC, USA).
# [7] = Aqueous solubility, shake-flask method, phosphate buffer pH 7.4; assay type: physicochemical; details: thermodynamic from solid, phosphate buffer pH 7.4, shake-flask, mean ± SD of three experiments
# Protocol: The aqueous solubility of tetrazole derivatives was determined by the shaking flask methodology in phosphate buffer at pH 7.4, microfiltration, and quantification of the saturated solutions via UV spectroscopy. […] The introduction of polar groups on the 3-indole position was favorable since the most soluble compounds were the oximes 16–19 (38–53 µg/mL), followed by the carbaldehyde series 12–15 (33–45 µg/mL), and the carbonitrile derivatives (25–40 µg/mL), whereas the unsubstituted indoles 8–11 were the least soluble series (19–35 µg/mL).
# The aqueous solubility of the compounds was determined using the saturation shake-flask method. First, calibration lines at the maximum wavelength of absorbance were determined for each compound. Then, 5 mg of each compound was suspended in 500 µL of pH 7.4 buffer, and the resulting mixture was shaken for 72 h at room temperature and filtrated over a […] filter to remove the insoluble fraction. The concentration of the compound in the supernatant (saturated solution) was determined by measuring UV absorbance at the maximum wavelength of absorbance and interpolation in the calibration line. A Helios Alfa Spectrophotometer was used for the UV measurements. The aqueous solubility values are given as the average of three independent experiments.
# [8] = test system: T98G (temozolomide resistant glioblastoma); experiment: Cell growth inhibition, MTT assay, T98G; assay type: cell-based; details: Homo sapiens
# Protocol: as §1, §2, §3
# [9] = target: T1, microtubular protein isolated from calf brains (bovine brain tubulin) (Bos taurus, UniProt P81947+Q6B856); experiment: Tubulin polymerization inhibition (TPI); assay type: biochemical; details: in vitro tubulin polymerization, mean ± SD
# T1 construct: from tissue; host or cells: calf (bovine) brain
# T1 sequence (Q6B856 whole entry): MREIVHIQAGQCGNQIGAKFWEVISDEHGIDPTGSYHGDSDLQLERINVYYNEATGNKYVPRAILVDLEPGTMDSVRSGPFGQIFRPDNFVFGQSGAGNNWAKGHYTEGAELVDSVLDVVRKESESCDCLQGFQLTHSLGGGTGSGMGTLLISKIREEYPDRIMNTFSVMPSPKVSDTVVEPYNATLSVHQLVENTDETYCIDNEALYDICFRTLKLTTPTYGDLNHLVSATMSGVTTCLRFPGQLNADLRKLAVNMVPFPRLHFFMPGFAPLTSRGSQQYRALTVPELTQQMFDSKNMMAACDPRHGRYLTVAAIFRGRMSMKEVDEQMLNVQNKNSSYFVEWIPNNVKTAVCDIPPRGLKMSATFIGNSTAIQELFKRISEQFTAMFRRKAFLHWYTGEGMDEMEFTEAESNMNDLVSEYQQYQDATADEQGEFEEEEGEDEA
# T1 sequence (P81947 whole entry): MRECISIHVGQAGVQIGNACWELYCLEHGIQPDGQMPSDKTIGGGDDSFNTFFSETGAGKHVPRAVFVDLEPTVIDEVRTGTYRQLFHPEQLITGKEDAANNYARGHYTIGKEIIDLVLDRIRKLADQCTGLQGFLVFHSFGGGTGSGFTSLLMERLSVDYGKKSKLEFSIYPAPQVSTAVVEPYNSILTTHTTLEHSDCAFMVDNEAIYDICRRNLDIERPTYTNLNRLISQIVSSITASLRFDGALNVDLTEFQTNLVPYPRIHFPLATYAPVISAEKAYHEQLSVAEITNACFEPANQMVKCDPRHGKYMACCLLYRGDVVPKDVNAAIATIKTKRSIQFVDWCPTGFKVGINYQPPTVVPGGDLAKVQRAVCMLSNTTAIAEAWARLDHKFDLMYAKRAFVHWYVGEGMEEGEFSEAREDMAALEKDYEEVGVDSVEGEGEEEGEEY
# Protocol: We evaluated the capacity of the new synthesized compounds to inhibit the polymerization of microtubular protein isolated from calf brains. The assays were performed by taking absorbance measurements to quantify the amount of polymer mass formed in the presence (or absence; negative controls) of the compounds.
# Bovine brain tubulin was isolated as previously described by following a modified version of the Shelanski method. The protein was stored at −80 °C, and its concentration was determined by employing the Bradford method before each use. […] Tubulin polymerization, caused when heating the samples, was accompanied by an increase in the absorbance (at 450 nm) of the sample that was monitored by using a Helios α spectrophotometer. […] Measurements were performed in triplicate in two independent experiments using microtubular proteins from different preparations.
# [10] = HCT-8, 72 h after drug exposure
# [11] = Homo sapiens, HT-29, mean ± SD, Table S1
# [12] = HEK293, 72 h, non-tumorigenic cell line
# [13] = HEK293, heading: IC50 HEK-293, mean ± SD, Table S1, non-tumorigenic cell line
# [14] = Homo sapiens, HT-29, 72 h after drug exposure
# [15] = mean ± SD, Table S1, in the presence of verapamil (10 µM)
Compound,IC50 ([1]; 72 h after drug exposure),IC50 ([2]; 72 h after drug exposure),IC50 ([3]; 72 h after drug exposure),"IC50 [4, 10]","IC50 [5, 11]",solubility at 72 h [7],"IC50 ([1]; mean ± SD, Table S1)","IC50 ([2]; mean ± SD, Table S1)",IC50 (U87 MG (glioblastoma); 72 h after drug exposure),"IC50 ([8]; 72 h, 72 h after drug exposure)","IC50 ([8]; mean ± SD, Table S1)","IC50 ([3]; mean ± SD, Table S1)","IC50 ([4]; HCT-8, mean ± SD, Table S1)","IC50 [5, 14]","IC50 [5, 15]",IC50 [9],"IC50 (U87 MG (glioblastoma); mean ± SD, Table S1)","IC50 [6, 12]","IC50 [6, 13]",other results
"Cn1nnc2c(C(N)=O)ncn2c1=O [TMZ, temozolomide, reference compound]",> 10000 nM,> 10000 nM,> 10000 nM,> 10000 nM,> 10 nM,–,–,–,–,–,–,–,–,–,–,–,–,> 10000 nM,> 10000 nM,"IC50 ([1]; heading: IC50 HeLa, mean ± SD, Table S1): > 10000 nM; IC50 ([2]; heading: IC50 MCF7, mean ± SD, Table S1): > 10000 nM; IC50 (U87 MG (glioblastoma); 72 h, 72 h after drug exposure): > 100000 nM; IC50 ([3]; heading: IC50 HepG2, mean ± SD, Table S1): > 10000 nM; IC50 ([4]; HCT-8, heading: IC50 HCT8, mean ± SD, Table S1): > 10000 nM"
"COc1cc(-c2nnnn2-c2ccc3c(c2)c(C#N)cn3C)cc(Cl)n1 [Compound 21, 5-(5-(2-chloro-6-methoxypyridin-4-yl)-1H-tetrazol-1-yl)-1-methyl-1H-indole-3-carbonitrile]",722 nM,701 nM,740 nM,705 nM,749.5 ± 5.1 nM,39.7 ± 0.4 µg/mL,722.1 ± 5 nM,701.5 ± 5.2 nM,634 nM,689 nM,689 ± 7.5 nM,740.3 ± 6.4 nM,705.4 ± 4.9 nM,749 nM,756.2 ± 5.6 nM,6900 ± 300 nM,–,> 10000 nM,> 10000 nM,–
"COc1ccc(/C=C\c2cc(OC)c(OC)c(OC)c2)cc1O [CA-4, combretastatin A4, reference compound]",2 nM,1 nM,13 nM,220 nM,305.4 ± 2.5 nM,1.1 ± 0.1 µg/mL,–,1.4 ± 0.1 nM,10 nM,17 nM,17.1 ± 0.2 nM,13.4 ± 0.2 nM,220.4 ± 2 nM,305 nM,327.5 ± 2.2 nM,–,10.1 ± 0.1 nM,721 nM,–,–
"CSc1cc(-c2nnnn2-c2ccc3c(c2)c(C#N)cn3C)cc(Cl)n1 [Compound 22, 5-(5-(2-chloro-6-(methylsulfanyl)pyridin-4-yl)-1H-tetrazol-1-yl)-1-methyl-1H-indole-3-carbonitrile]",341 nM,329 nM,327 nM,335 nM,355 ± 3.9 nM,31.2 ± 0.3 µg/mL,341.2 ± 2.8 nM,–,312 nM,359 nM,359 ± 3.9 nM,327.3 ± 2.8 nM,335.3 ± 3.3 nM,355 nM,357 ± 3.9 nM,4600 ± 200 nM,312.3 ± 2.6 nM,> 10000 nM,> 10000 nM,–
"CSc1cc(-c2nnnn2-c2ccc3c(c2)c(C#N)cn3C)cc(SC)n1 [Compound 23, 5-(5-(2,6-bis(methylsulfanyl)pyridin-4-yl)-1H-tetrazol-1-yl)-1-methyl-1H-indole-3-carbonitrile]",841 nM,963 nM,877 nM,822 nM,929.1 ± 7.8 nM,34.1 ± 0.3 µg/mL,841.1 ± 6.1 nM,963.3 ± 7.1 nM,831 nM,865 nM,865.2 ± 7.2 nM,877.2 ± 5.9 nM,822.3 ± 6.7 nM,929 nM,927.5 ± 7.4 nM,7900 ± 200 nM,831.2 ± 4.8 nM,> 10000 nM,> 10000 nM,–
"COc1ccc(S(=O)(=O)Nc2cccnc2Nc2ccc(O)cc2)cc1 [ABT-751, reference compound]",388 nM,180 nM,–,209 nM,213.5 ± 2.1 nM,40 ± 0.3 µg/mL,388 ± 3.9 nM,180 ± 2.8 nM,–,–,–,327.1 ± 1.1 nM,209.1 ± 2 nM,213 nM,250 ± 2.9 nM,–,375 ± 5.4 nM,–,–,–

# The remaining compounds from weak to strong by IC50 ([1]; 72 h after drug exposure), led by results:
IC50 ([1]; 72 h after drug exposure),IC50 ([2]; 72 h after drug exposure),IC50 ([3]; 72 h after drug exposure),"IC50 [4, 10]","IC50 [5, 11]",solubility at 72 h [7],"IC50 ([1]; mean ± SD, Table S1)","IC50 ([2]; mean ± SD, Table S1)",IC50 (U87 MG (glioblastoma); 72 h after drug exposure),"IC50 ([8]; 72 h, 72 h after drug exposure)","IC50 ([8]; mean ± SD, Table S1)","IC50 ([3]; mean ± SD, Table S1)","IC50 ([4]; HCT-8, mean ± SD, Table S1)","IC50 [5, 14]","IC50 [5, 15]",IC50 [9],"IC50 (U87 MG (glioblastoma); mean ± SD, Table S1)",Compound,"IC50 [6, 12]","IC50 [6, 13]",other results
307 nM,339 nM,341 nM,333 nM,355.5 ± 2.3 nM,47.8 ± 0.6 µg/mL,307.1 ± 2.8 nM,339.5 ± 2.4 nM,275 nM,294 nM,294 ± 3 nM,341.4 ± 3.3 nM,333.2 ± 2.7 nM,355 nM,359 ± 4.1 nM,4300 ± 200 nM,275 ± 2.8 nM,"CSc1cc(-c2nnnn2-c2ccc3c(c2)c(C=NO)cn3C)cc(SC)n1 [Compound 19, 5-(5-(2,6-bis(methylsulfanyl)pyridin-4-yl)-1H-tetrazol-1-yl)-1-methyl-1H-indole-3-carbaldehyde oxime]",8310 nM,–,–
207 nM,210 nM,220 nM,219 nM,211.1 ± 2 nM,38.2 ± 0.4 µg/mL,207.1 ± 2 nM,210.1 ± 1.9 nM,131 nM,127 nM,127.3 ± 0.9 nM,220 ± 2.3 nM,219.1 ± 1.5 nM,211 nM,–,3700 ± 200 nM,131.3 ± 1.1 nM,"Cn1cc(C=NO)c2cc(-n3nnnc3-c3cc(Cl)nc(Cl)c3)ccc21 [Compound 16, 5-(5-(2,6-dichloropyridin-4-yl)-1H-tetrazol-1-yl)-1-methyl-1H-indole-3-carbaldehyde oxime]",7010 nM,–,–
131 nM,123 nM,127 nM,115 nM,152.3 ± 1.4 nM,42.7 ± 0.5 µg/mL,–,123 ± 1.7 nM,93 nM,102 nM,102 ± 1.1 nM,–,115 ± 1.3 nM,152 nM,150 ± 1.6 nM,3300 ± 100 nM,93.4 ± 1 nM,"CSc1cc(-c2nnnn2-c2ccc3c(c2)c(C=NO)cn3C)cc(Cl)n1 [Compound 18, 5-(5-(2-chloro-6-(methylsulfanyl)pyridin-4-yl)-1H-tetrazol-1-yl)-1-methyl-1H-indole-3-carbaldehyde oxime]",6130 nM,–,–
